Experimental data taken from patent publication US20010012854A1, “MULTICATALYTIC PROTEASE INHIBITORS FOR USE AS ANTI-TUMOR AGENTS” (priority 1997, published 2001).

How the values were obtained:
[1] = system: Jurkat cells transfected with a control vector; assay: Apoptotic nuclear changes (Hoechst staining) in Jurkat cells transfected with control vector; type: cell-based, human
Procedure: b. Cell culture. Human Jurkat T and HL-60 cells were grown in RPMI 1640 (Life Technologies, Inc.) supplemented with 10% fetal calf serum (Sigma), 100 units/ml of penicillin, 100 μg/ml of streptomycin and 2mM L-glutamine (growth medium). Jurkat T. cells overexpressing the Bcl-2 oncoprotein or vector alone (provided by Dr. D. Johnson, University of Pittsburgh, Pa.) were grown in the same growth medium with […] G418. Human cancer cell lines of breast (MCF-7, MDA-MB-231), prostate (DU145, PC3) and osteosarcoma (U2-OS), obtained from American Type Culture Collection (ATCC. Rockville, Md.)), were also grown in the RPMI growth medium. Human oral (SCC-25; from ATCC) and brain (SNB-19; Welch, W. C., et al. In Vitro Cell. Dev. Biol., 31:610-616, 1995) cancer cell lines, and normal (WI-38) and SV40-transformed human fibroblasts (WI-38 VA-13; from ATCC) were grown in DMEM medium containing 10% fetal calf serum, penicillin, streptomycin and L-glutamine.
(§1) d. Flow cytometry nuclear staining and DNA fragmentation assays. DNA content analysis using flow cytometry was performed as described previously (Nicoletti, I., et al. J. Immunol. Methods 139:271-279, 1992). To assay nuclear morphology, cells were washed with PBS, fixed with 70% ethanol for 1 h, and stained with Hoechst 33258 (1 mM) for 30 min. The nuclear morphology of cells was visualized by fluorescence microscope (OLYMPUS BH2). DNA fragmentation was assayed as described previously (Grant, S., et al. Cancer Res. 52:6270-6278, 1992).
The apoptosis-inducing potency of Compound A was compared with two standard chemotherapeutic anti-cancer agents, etoposide and cisplatin. […] By comparison, treatment with 50 μM etoposide for 8 h induced only ˜47% of these cells to undergo apoptosis (FIG. 3, panels c vs. a). Treatment of 10 μM Compound A, but not etoposide or cisplatin, induced apoptosis in human prostate, breast, tongue and brain cancer cells and also in SV40 DNA virus-transformed human fibroblasts (see FIGS. 5-7).

[2] = system: human leukemia HL-60 cells; assay: Apoptosis in HL-60 cells (DNA fragmentation, PARP cleavage); type: cell-based; conditions: 30 μM, 3-4 h
Procedure: as §1
(§2) e. Whole cell extracts and western blot assay. To prepare whole cell extracts, cells were washed with PBS, and homogenized in lysis buffer (50 mM Tris, pH 8.0, 5 mM EDTA, 150 mM NaCl, 0.5% Nonidet P-40, 0.5 mM PMSF and 0.5 mM dithiothreitol). Following 30 min rocking at 4° C., the lysates were centrifuged and the supernatants were collected as whole cell extracts. The protein samples were then analyzed by sodium dodecyl sulfate-6% polyacrylamide gel electrophoresis (20-60 μg protein per lane) followed by the enhanced chemiluminescence Western blot assay using specific antibodies to CPP32, PARP, p21, p27 or RB.
Example 1 was designed to determine if MCP is involved in the survival signaling pathway(s) and if inhibition of MCP activity induces apoptosis. Human Jurkat T cells were treated with 30 μM Compound A for 4 h. […]

[3] = system: Human prostate cancer PC-3 cells; assay: Detachment and apoptotic nuclear changes in PC-3 cells; type: cell-based; conditions: PC-3, 10 μM, 36 h
Procedure: (§3) c. Treatment of cells with MCP inhibitor. Cells were treated with a specified MCP Inhibitor, a standard anticancer agent (etoposide or cisplatin), or DMSO (vehicle). During this process, morphological changes and cellular detachment (for attached cell lines) were monitored. At each time point, cells were harvested, and used for measurement of apoptosis and other biochemical events. In Example 1, infra, involving YVAD-CMK, Compound A was first added to Jurkat T cells. This was followed immediately by dividing the cells into multiple tissue culture flasks. YVAD-CMK was then added to an indicated concentration.
as §1
Human prostate cancer PC-3 cells were treated with 10 μM Compound A, etoposide, or an equal percentage of vehicle (DMSO), followed by separation of the attached and detached cell populations. Both attached and detached cell populations were then used for detection of apoptotic nuclear changes. After 36 h treatment with Compound A, ˜50% of PC-3 cells became detached.

[4] = system: glioblastoma cell line SNB-19; assay: Detachment and apoptosis in SNB-19 cells; type: cell-based, human
Procedure: as §3, §1

[5] = system: osteosarcoma cell line U2OS; assay: Detachment and apoptosis in U2OS cells; type: cell-based, human; conditions: U2OS (data not shown)
Procedure: as §3, §1

[6] = system: SV40-transformed human fibroblasts (WI-38 VA13); assay: Detachment, apoptotic nuclear changes and PARP cleavage in SV40-transformed fibroblasts; type: cell-based
Procedure: as §3, §1, §2
Whether Compound A has, any selectivity in induction of apoptosis between transformed and normal cells was investigated. Normal human fibroblast cell line (WI-38) and its SV40-transformed derivative (WI-38 VA13) were utilized. […]

[7] = system: p21 and p27 in human breast cancer MDA-MB-231 cells; assay: Western blot of p21 and p27 levels in MDA-MB-231 cells; type: cell-based; conditions: MDA-MB-231, 15 μM, 6 hours
Procedure: as §2
Additionally, a band of 70 kDa whih may represent ubiquinated p70 was also observed. In contrast, etoposide caused only limited accumulation of p21 (≦4-fold) and p27 (≦2-fold) at 17 hours when used at concentrations up to 100 μM.

[8] = system: p21 and p27 in SV-40 transformed WI-38 fibroblasts; assay: Western blot of p21 and p27 levels in SV-40 transformed WI-38 fibroblasts; type: cell-based, human; conditions: SV-40 transformed WI-38, 10 μM, 22 hours
Procedure: as §2
The accumulation of p21 and p27 following treatment with Compound A was also evaluated in SV-40 transformed and normal WI-38 fibroblasts.

[9] = biological target: MCP chymotrypsin-like activity (Homo sapiens, UniProt P28074); conditions: literature values (Iqbal et al.; Rock et al.); read-out: Ki toward the proteasome chymotrypsin-like activity; cited from earlier work

SMILES: CC(C)C[C@@H](C=O)NC(=O)[C@@H](CCCNC(=N)N[N+](=O)[O-])NC(=O)C(CCCCCCCCN1C(=O)c2ccccc2C1=O)C1CCCC1 (stereo partly shown) [Compound A]
- Cells exhibiting apoptotic nuclear morphology ([1]; 15 μM, 8 h): 30%
- Cells exhibiting apoptotic nuclear changes ([1]; 30 μM, 3.5 h): ~100%
- Cleavage of PARP [2]: complete cleavage of PARP
- Detached cells [3]: ~50%
- Nuclear morphology (apoptotic condensation and fragmentation) [3]: All the detached PC-3 cells exhibited typical apoptotic nuclear condensation and fragmentation
- Induction of cellular detachment and apoptosis [4]: induced cellular detachment and apoptosis
- Induction of cellular detachment and apoptosis [5]: induced cellular detachment and apoptosis
- PARP cleavage ([6]; SV40-transformed WI-38, total cell population): observed only in the transformed
- Detachment and apoptotic nuclear changes ([6]; WI-38 VA13, 10 μM, up to 22 h): induced a detachment in the majority of SV40-transformed cells
- Increase in level of p21 [7]: 45 fold
- Levels of p27 [7]: slightly increased
- Elevation of p27 levels [8]: 8 fold
- Ki [9]: < 2 nM
